In patent US11529341B2, “Bicyclic compounds as inhibitors of PD1/PD-L1 interaction/activation” (JUBILANT PRODEL LLC, priority 2018, dated 2022):

Molecular target: T1, PD-1/PD-L1 interaction (Homo sapiens, UniProt Q9NZQ7)
T1 construct: Tag1 (undisclosed kit tag); purchased CisBio 63ADK000CPAPEG
Assay: PD-1/PD-L1 Homogenous Time-Resolved Fluorescence (HTRF) binding assay (CisBio kit)
Settings: Biochemical PD1/PD-L1 inhibition
Experimental: PD-L1 Enzyme Assay: Homogenous Time-Resolved Fluorescence (HTRF) Binding Assay
All binding studies were performed using PD-1/PD-L1 Binding Assay Kit from CisBio (Catalog #63ADK000CPAPEG), according to the manufacturer's protocol. The interaction between Tag1-PD-1 and […] was detected by anti-Tag1-Eu^3+ (HTRF donor) and anti-Tag2-XL665 (HTRF acceptor). When the donor and acceptor antibodies were brought to close proximity due to PD-1 and PD-L1 binding, excitation of the donor antibody triggered fluorescent resonance energy transfer (FRET) towards the acceptor antibody, which in turn emitted specifically at 665 nm. This specific signal is positively proportional to PD-1/PD-L1 interaction. The compounds blocking PD-1/PD-L1 interaction will cause a reduction in HTRF signal. The necessary reagents were mixed in the following order: 2 μl compounds (or diluents buffer), 4 μl PD-L1 protein, 4 μl PD-1 protein. After an incubation of 15 minutes, 5 μl of anti-Tag1-Eu^3+ and 5 μl of anti-Tag2-XL665 were added. The plate was sealed and incubated at room temperature for 1 h. The fluorescence emission was read at two different wavelengths (665 nm and 620 nm) on a BMG PheraStar® multi-plate reader. Results were calculated from the 665 nm and 620 nm fluorescence signal and expressed in HTRF ratio=(665 nm/620 nm)×10^4.

T1 sequence (Q9NZQ7 19-238 limits assumed): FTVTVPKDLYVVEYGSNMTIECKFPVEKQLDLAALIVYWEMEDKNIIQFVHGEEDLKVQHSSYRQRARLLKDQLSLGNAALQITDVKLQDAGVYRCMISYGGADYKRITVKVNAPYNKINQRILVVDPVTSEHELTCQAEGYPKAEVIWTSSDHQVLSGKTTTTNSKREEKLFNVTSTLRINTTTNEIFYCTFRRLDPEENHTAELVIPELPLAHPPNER

Compound: Cc1c(COc2cc(OCc3cccc(C#N)c3)c(CN3CCC[C@@H]4C[C@@]43C(=O)O)c3c2CCC3)cccc1-c1ccccc1 (racemic) [Compound 43, rac-(1R,6S)-2-((5-((3-cyanobenzyl)oxy)-7-((2-methyl-[1,1′-biphenyl]-3-yl)methoxy)-2,3-dihydro-1H-inden-4-yl)methyl)-2-azabicyclo[4.1.0]heptane-1-carboxylic acid]
- IC50: < 100 nM

Compound: COc1cc(OCc2cccc(-c3ccccc3)c2C)c2c(c1CN1CCC[C@H]3C[C@]31C(=O)O)CCC2 (racemic) [Compound 45, (1R,6S)-2-((5-methoxy-7-((2-methyl-[1,1′-biphenyl]-3-yl)methoxy)-2,3-dihydro-1H-inden-4-yl)methyl)-2-azabicyclo[4.1.0]heptane-1-carboxylic acid]
- IC50: 100 to 500 nM

Compound: Cc1c(COc2cc(OCc3cncc(C#N)c3)c(CN3CCC[C@@H]4C[C@@]43C(=O)O)c3c2CCC3)cccc1-c1ccccc1 (racemic) [Compound 51, rac-(1R,6S)-2-((5-((5-cyanopyridin-3-yl)methoxy)-7-((2-methyl-[1,1′-biphenyl]-3-yl)methoxy)-2,3-dihydro-1H-inden-4-yl)methyl)-2-azabicyclo[4.1.0]heptane-1-carboxylic acid]
- IC50: < 100 nM

Compound: COc1cc(OCc2cccc(-c3ccccc3)c2C#N)c2c(c1CN1CCC[C@@H]3C[C@@]31C(=O)O)CCC2 (racemic) [Compound 62, rac-(1R,6S)-2-((7-((2-cyano-[1,1′-biphenyl]-3-yl)methoxy)-5-methoxy-2,3-dihydro-1H-inden-4-yl)methyl)-2-azabicyclo[4.1.0]heptane-1-carboxylic acid]
- IC50: < 100 nM

Compound: N#Cc1cncc(COc2cc(OCc3cccc(-c4ccccc4)c3C#N)c3c(c2CN2CCC[C@@H]4C[C@@]42C(=O)O)CCC3)c1 (racemic) [Compound 72, rac-(1R,6S)-2-((7-((2-cyano-[1,1′-biphenyl]-3-yl)methoxy)-5-((5-cyanopyridin-3-yl)methoxy)-2,3-dihydro-1H-inden-4-yl)methyl)-2-azabicyclo[4.1.0]heptane-1-carboxylic acid]
- IC50: < 100 nM

Compound: Cc1c(COc2ccc(CN3CCCC[C@H]3C(=O)O)c3c2CCC3)cccc1-c1ccccc1 [Compound 1, (S)-1-((7-((2-methyl-[1,1′-biphenyl]-3-yl)methoxy)-2,3-dihydro-1H-inden-4-yl)methyl) piperidine-2-carboxylic acid]
- IC50: 100 to 500 nM

Compound: COc1cc(OCc2cccc(-c3ccccc3)c2C)c2c(c1CNCCNC(C)=O)CCC2 [Compound 2, N-(2-(((5-methoxy-7-((2-methyl-[1,1′-biphenyl]-3-yl)methoxy)-2,3-dihydro-1H-inden-4-yl)methyl)amino)ethyl)acetamide]
- IC50: 100 to 500 nM

Compound: Cc1c(COc2ccc(CN3CCCC[C@H]3C(=O)O)c3c2CCC3)cccc1-c1cccc2c1ccn2CCCN1CCC(F)(F)C1 [Compound 3, (S)-1-((7-((3-(1-(3-(3,3-difluoropyrrolidin-1-yl)propyl)-1H-indol-4-yl)-2-methylbenzyl)oxy)-2,3-dihydro-1H-inden-4-yl)methyl)piperidine-2-carboxylic acid]
- IC50: > 500 nM

Compound: Cc1cc(CN2CCCC[C@H]2C(=O)O)c2c(c1OCc1cccc(-c3ccccc3)c1C)CCC2 [Compound 4, (S)-1-((6-methyl-7-((2-methyl-[1,1′-biphenyl]-3-yl)methoxy)-2,3-dihydro-1H-inden-4-yl)methyl)piperidine-2-carboxylic acid]
- IC50: 100 to 500 nM

Compound: Cc1c(COc2c(Cl)cc(CN3CCCC[C@H]3C(=O)O)c3c2CCC3)cccc1-c1ccccc1 [Compound 5, (S)-1-((6-chloro-7-((2-methyl-[1,1′-biphenyl]-3-yl)methoxy)-2,3-dihydro-1H-inden-4-yl)methyl)piperidine-2-carboxylic acid]
- IC50: 100 to 500 nM

Compound: COC(=O)c1cc(CNCCNC(C)=O)c2c(c1OCc1cccc(-c3ccccc3)c1C)CCC2 [Compound 6, Methyl 7-(((2-acetamidoethyl)amino)methyl)-4-((2-methyl-[1,1′-biphenyl]-3-yl)methoxy)-2,3-dihydro-1H-indene-5-carboxylate]
- IC50: > 500 nM

Compound: COc1cc(OCc2cccc(-c3cccc(OCCCN4CCC(F)(F)C4)c3C)c2C)c2c(c1CN1CCCC[C@H]1C(=O)O)CCC2 [Compound 7, (S)-1-((7-((3′-(3-(3,3-difluoropyrrolidin-1-yl)propoxy)-2,2′-dimethyl-[1,1′-biphenyl]-3-yl)methoxy)-5-methoxy-2,3-dihydro-1H-inden-4-yl)methyl)piperidine-2-carboxylic acid]
- IC50: > 500 nM

Compound: Cc1c(COc2cc(OCc3cccc(C#N)c3)c(CN3CCCC[C@H]3C(=O)O)c3c2CCC3)cccc1-c1ccccc1 [Compound 8, (S)-1-((5-((3-cyanobenzyl)oxy)-7-((2-methyl-[1,1′-biphenyl]-3-yl)methoxy)-2,3-dihydro-1H-inden-4-yl)methyl)piperidine-2-carboxylic acid]
- IC50: < 100 nM

Compound: Cc1c(COc2cc(OCc3cncc(F)c3)c(CN3CCCC[C@H]3C(=O)O)c3c2CCC3)cccc1-c1ccccc1 [Compound 9, (S)-1-((5-((5-fluoropyridin-3-yl)methoxy)-7-((2-methyl-[1,1′-biphenyl]-3-yl)methoxy)-2,3-dihydro-1H-inden-4-yl)methyl)piperidine-2-carboxylic acid]
- IC50: < 100 nM

Compound: CC(=O)NCCNCc1c(OCc2cncc(F)c2)cc(OCc2cccc(-c3ccccc3)c2C)c2c1CCC2 [Compound 10, N-(2-(((5-((5-fluoropyridin-3-yl)methoxy)-7-((2-methyl-[1,1′-biphenyl]-3-yl)methoxy)-2,3-dihydro-1H-inden-4-yl)methyl)amino)ethyl)acetamide]
- IC50: < 100 nM

Compound: COc1cc(OCc2cccc(-c3ccccc3)c2C)c2c(c1CN1CC3(CC3)C[C@H]1C(=O)O)CCC2 [Compound 11, (S)-5-((5-methoxy-7-((2-methyl-[1,1′-biphenyl]-3-yl)methoxy)-2,3-dihydro-1H-inden-4-yl)methyl)-5-azaspiro[2.4]heptane-6-carboxylic acid]
- IC50: < 100 nM

Compound: Cc1c(COc2cc(OCC(F)(F)F)c(CN3CCCC[C@H]3C(=O)O)c3c2CCC3)cccc1-c1ccccc1 [Compound 12, (S)-1-((7-((2-methyl-[1,1′-biphenyl]-3-yl)methoxy)-5-(2,2,2-trifluoroethoxy)-2,3-dihydro-1H-inden-4-yl)methyl)piperidine-2-carboxylic acid]
- IC50: < 100 nM

Compound: CC(=O)N(C)CCNCc1c(OCc2cccc(C#N)c2)cc(OCc2cccc(-c3ccccc3)c2C)c2c1CCC2 [Compound 13, N-(2-(((5-((3-cyanobenzyl)oxy)-7-((2-methyl-[1,1′-biphenyl]-3-yl)methoxy)-2,3-dihydro-1H-inden-4-yl)methyl)amino)ethyl)-N-methylacetamide]
- IC50: < 100 nM

Compound: CC(=O)NCCNCc1c(OC(C)c2cccc(C#N)c2)cc(OCc2cccc(-c3ccccc3)c2C)c2c1CCC2 (centres unmarked) [Compound 14, N-(2-(((5-(1-(3-cyanophenyl)ethoxy)-7-((2-methyl-[1,1′-biphenyl]-3-yl)methoxy)-2,3-dihydro-1H-inden-4-yl)methyl)amino)ethyl)acetamide]
- IC50: > 500 nM

Compound: CC(=O)NC1CCCN(Cc2c(OCc3cccc(C#N)c3)cc(OCc3cccc(-c4ccccc4)c3C)c3c2CCC3)C1 (centres unmarked) [Compound 15, N-(1-((5-((3-cyanobenzyl)oxy)-7-((2-methyl-[1,1′-biphenyl]-3-yl)methoxy)-2,3-dihydro-1H-inden-4-yl)methyl)piperidin-3-yl)acetamide]
- IC50: < 100 nM

Compound: CC(=O)NCCNCc1ccc(OCc2cccc(-c3ccccc3)c2C)c2c1CCC2 [Compound 16, N-(2-(((7-((2-methyl-[1,1′-biphenyl]-3-yl)methoxy)-2,3-dihydro-1H-inden-4-yl)methyl)amino)ethyl)acetamide]
- IC50: > 500 nM

Compound: Cc1c(COc2ccc(CN3CC4(COC4)C3)c3c2CCC3)cccc1-c1ccccc1 [Compound 17, 6-((7-((2-methyl-[1,1′-biphenyl]-3-yl)methoxy)-2,3-dihydro-1H-inden-4-yl)methyl)-2-oxa-6-azaspiro[3.3]heptane]
- IC50: > 500 nM

Compound: Cc1c(COc2ccc(CNC(CO)(CO)CO)c3c2CCC3)cccc1-c1ccccc1 [Compound 18, 2-(hydroxymethyl)-2-(((7-((2-methyl-[1,1′-biphenyl]-3-yl)methoxy)-2,3-dihydro-1H-inden-4-yl)methyl)amino)propane-1,3-diol]
- IC50: 100 to 500 nM

Compound: Cc1c(COc2ccc(CNC3(C(=O)O)CC3)c3c2CCC3)cccc1-c1ccccc1 [Compound 19, 1-(((7-((2-methyl-[1,1′-biphenyl]-3-yl)methoxy)-2,3-dihydro-1H-inden-4-yl)methyl)amino)cyclopropane-1-carboxylic acid]
- IC50: 100 to 500 nM

Compound: Cc1c(COc2ccc(CNCC(=O)O)c3c2CCC3)cccc1-c1ccccc1 [Compound 20, ((7-((2-methyl-[1,1′-biphenyl]-3-yl)methoxy)-2,3-dihydro-1H-inden-4-yl)methyl)glycine]
- IC50: 100 to 500 nM

Compound: Cc1c(COc2ccc(CNCCC(=O)O)c3c2CCC3)cccc1-c1ccccc1 [Compound 21, 3-(((7-((2-methyl-[1,1′-biphenyl]-3-yl)methoxy)-2,3-dihydro-1H-inden-4-yl)methyl)amino)propanoic acid]
- IC50: > 500 nM
